# According to paper PMC12031237, “Toxicity Assessment of (4Z)-Lachnophyllum and (4Z,8Z)-Matricaria Lactones: Implications for Environmental Safety of Bioherbicides” (Toxins, 2025):
# Read-outs that look alike come from different tables or passages of the source.
# Tests used:
# A. fischeri [1] = experiment: Bioluminescence (light) inhibition test, ISO 11348-3; conditions: 30 min exposure; standard error in brackets, n = 3
# Method: The bioluminescence inhibition test (30 min) was detected with the A. fischeri (NRRLB-11177) supplied by MicroBioTest, Gent, Belgium, and according to ISO 11348-3 [59]. The bioluminescence was determined by the luminometer Microtox (Model 500 analyzer, New Castle, DE, USA) at 490 nm. To provide the required osmotic pressure for the bacterium, the stock solution was diluted to perform the test in saline water solution (2% sodium chloride, NaCl). The concentrations tested correspond to 0.19, 0.39, 0.78, 1.56, and 3.12 mg L^−^1 and a negative control of 0 mg L^−^1. Toxicity tests were performed in triplicate with a control, and the percentage luminescence inhibition was expressed as the ratio of the decrease in bacterial light production to the remaining light.
# (§1) Data analysis was conducted using RStudio for Windows (Version 2024.09.1). Dose–response models were applied to estimate the effective concentrations (EC10 and EC50) for the tested endpoints using the “drc” package. For D. magna, the data were modeled with a binomial log-logistic approach, whereas data for R. subcapitata, A. fischeri and L. sativum were fitted to log-logistic models with the upper limit constrained to 100. Furthermore, to ensure assay sensitivity and validity, a positive control exposed to potassium dichromate for the aquatic species and copper chloride for C. elegans was tested under the same experimental conditions.
# R. subcapitata [2] = experiment: Algal growth inhibition test, ISO 8692; conditions: positive control
# Method: The algal growth inhibition test (72 h) with R. subcapitata was carried out according to ISO 8692 [58]. The algal density was determined by spectrophotometric analysis (DR5000, Hach Lange GbH, Weinheim, Germany) at 670 nm. The concentrations tested correspond to 0.19, 0.39, 0.78, 1.56, and 3.12 mg L^−^1 and a negative control of 0 mg L^−^1. The growth inhibition was calculated as the difference in growth at the end of the test of the sample and the control group. Toxicity tests were carried out in triplicate.
# as §1
# D. magna [3] = experiment: Crustacean immobility acute test, ISO 6341; format: in vivo, Daphnia magna
# Method: The immobility acute test (48 h) with D. magna was conducted according to ISO 6341 [60]. D. magna was selected from laboratory stock cultures at the Hygiene Laboratory of the Department of Biology of the University of Naples Federico II, placed in ISO medium, and fed daily with the microalgae R. subcapitata. For the test, five neonates (third brood, <24 h old) were exposed in 10 mL of ISO medium to the following corresponding concentrations: 0.22, 0.43, 0.86, 1.73, 3.46, 6.91, 13.83, 27.65, and 55.30 mg L^−^1 and a negative control of 0 mg L^−^1. Each concentration had 4 replicates, and immobility was assessed after 24 and 48 h of exposure.
# as §1
# C. elegans = experiment: Nematode survival bioassay in soil, ASTM E2172-01; format: in vivo; conditions: 24 h exposure, positive control
# Method: The nematode bioassay was carried out using the Caenorhabditis elegans wild-type strain N2, Bristol variant, according to the ASTM E2172—01 Standard Method (2014). Culture was maintained on NGM (nematode growth media) plates seeded with Escherichia coli (uracil-deficient OP50 strain) and stored at 20 °C. The tests were conducted using age-synchronized adult nematodes, obtained by lysing gravid nematodes with a bleaching solution (10 g/L NaOH, 10.5 g/L NaOCl), followed by centrifugation and washing with an M9 mineral medium (2.2 mM KH2PO4, 4.2 mM Na2HPO4, 85.6 mM NaCl, and 1 mM MgSO4). The synchronized nematodes were then transferred to NGM agar plates and left to recover overnight.
# Soil samples (2.33 g) were hydrated to 35–45% of their dry weight using K-medium in centrifuge tubes. Ten worms were transferred to each tube and exposed to the soil samples for 24 h at 20 °C. […] Treatments were performed in triplicate, with worms kept unfed during the exposure period. Nematodes were extracted by centrifugation (2000 rpm, 2 min) using silica gel (Ludox TM 50, Sigma-Aldrich, St. Louis, MO, USA) with a specific density of 1.13 g/mL. The supernatant was then transferred to 100 mm glass Petri dishes and washed with Keller (K) medium. Extracted individuals were counted under a microscope (40× magnification), with mortality as the measured endpoint. Test validity required a minimum of 80% nematode recovery and 90% survival in the control group.
# A. fischeri [4] = conditions: 30 min, cited from earlier work
# D. magna [5] = experiment: Literature acute toxicity of herbicides to D. magna; format: in vivo, Daphnia magna
# Excerpt: (§2) Table 3 EC50 values from the literature for the aquatic test species exposed to multiple commonly used herbicides. | column: Hazard Ranking
# D. magna [6] = conditions: 48 h, cited from earlier work
# R. subcapitata [7] = experiment: Literature growth inhibition of R. subcapitata by herbicides; format: cell-based, Raphidocelis subcapitata
# Excerpt: as §2
# A. fischeri [8] = experiment: Literature acute toxicity of herbicides to A. fischeri; format: cell-based, Aliivibrio fischeri
# Excerpt: as §2
# R. subcapitata [9] = conditions: cited from earlier work
# [10] = GHS ranking of 96 h EC50 of ref 47
# [11] = GHS ranking of 48 h EC50 of ref 49
# [12] = GHS ranking of 72 h EC50 of ref 49
# [13] = GHS ranking of 30 min EC50 of ref 49
smiles,measurement,setting,value
"[K+].[K+].[O]=[Cr](=[O])([O-])[O][Cr](=[O])(=[O])[O-] [potassium dichromate, reference compound]",EC50 (light inhibition),A. fischeri [1],3.730 µg/mL
same,EC50 (growth inhibition),R. subcapitata [2],0.987 µg/mL
same,EC50 (immobilization),D. magna [3]; 24 h exposure,10.501 µg/mL
same,EC50 (immobilization),D. magna [3]; 48 h exposure,5.66 µg/mL
"[Cl][Cu][Cl] [copper chloride, reference compound]",EC50,C. elegans,42.37 µg/mL
O=C(O)CNCP(=O)(O)O [Glyphosate],EC50,A. fischeri [4]; ref 48,2.93 µg/mL
same,Hazard Ranking,D. magna [5]; GHS ranking of 48 h EC50 (commercial formulation) of ref 39,*** (toxic (<1 mg L^−1 ≤ 10 mg L^−1))
same,Hazard Ranking,D. magna [5]; GHS ranking of 48 h EC50 (isopropylamine salt) of ref 39,*** (toxic (<1 mg L^−1 ≤ 10 mg L^−1))
same,Hazard Ranking,D. magna [5]; GHS ranking of 48 h EC50 of ref 40,*** (toxic (<1 mg L^−1 ≤ 10 mg L^−1))
same,Hazard Ranking,D. magna [5]; GHS ranking of 48 h EC50 of ref 41,*** (toxic (<1 mg L^−1 ≤ 10 mg L^−1))
same,Hazard Ranking,D. magna [5]; GHS ranking of 48 h LC50 of ref 42,** (harmful: (<10 mg L^−1 ≤ 100 mg L^−1))
same,Hazard Ranking,D. magna [5]; GHS ranking of 48 h LC50 of ref 43,* (not harmful: (>100 mg L^−1))
same,Hazard Ranking,D. magna [5]; GHS ranking of 48 h LC50 of ref 44,**** (Very toxic (≤1 mg L^−1))
same,Hazard Ranking,D. magna [5]; GHS ranking of 48 h LC50 of ref 45,*** (toxic (<1 mg L^−1 ≤ 10 mg L^−1))
same,Hazard Ranking,D. magna [5]; GHS ranking of 48 h LC50 of ref 46,** (harmful: (<10 mg L^−1 ≤ 100 mg L^−1))
same,EC50,"D. magna [6]; average of multiple tests performed, given as isopropylamine salt",4.30 °° mg L^−1
same,EC50,"D. magna [6]; average of multiple tests performed, rounded up (formulation commercially available)",7.15 ° mg L^−1
same,EC50,D. magna [6]; ref 40,4.20 mg/L
same,EC50,D. magna [6]; ref 41,8.90 mg/L
same,LC50,D. magna [6]; ref 42,21.34 µg/mL
same,LC50,D. magna [6]; ref 43,190.0 µg/mL
same,LC50,D. magna [6]; ref 44,0.012 µg/mL
same,LC50,D. magna [6]; ref 45,9.34 µg/mL
same,LC50,D. magna [6]; ref 46,11.68 µg/mL
same,Hazard Ranking,R. subcapitata [7]; [10],*** (toxic (<1 mg L^−1 ≤ 10 mg L^−1))
same,Hazard Ranking,A. fischeri [8]; GHS ranking of 30 min EC50 of ref 48,*** (toxic (<1 mg L^−1 ≤ 10 mg L^−1))
same,EC50,R. subcapitata [9]; 96 h,5.55 µg/mL
CCC(=O)Nc1ccc(Cl)c(Cl)c1 [Propanil],Hazard Ranking,D. magna [5]; [11],*** (toxic (<1 mg L^−1 ≤ 10 mg L^−1))
same,EC50,D. magna [6]; ref 49,2.00 mg/L
same,Hazard Ranking,R. subcapitata [7]; [12],**** (Very toxic (≤1 mg L^−1))
same,EC50,R. subcapitata [9]; 72 h,0.05 µg/mL
CCNc1nc(Cl)nc(NC(C)C)n1 [Atrazine],EC50,A. fischeri [4]; ref 49,39.80 µg/mL
same,Hazard Ranking,D. magna [5]; [11],**** (Very toxic (≤1 mg L^−1))
same,EC50,D. magna [6]; ref 49,0.05 mg/L
same,Hazard Ranking,R. subcapitata [7]; [12],**** (Very toxic (≤1 mg L^−1))
same,Hazard Ranking,A. fischeri [8]; [13],** (harmful: (<10 mg L^−1 ≤ 100 mg L^−1))
same,EC50,R. subcapitata [9]; 72 h,0.02 µg/mL
CCc1cccc(C)c1N(C(=O)CCl)C(C)COC (stereo not shown) [Metolachlor],EC50,A. fischeri [4]; ref 49,17.00 µg/mL
same,EC50,A. fischeri [4]; ref 50,265.00 µg/mL
same,EC50,A. fischeri [4]; ref 51,214.85 µg/mL
same,Hazard Ranking,D. magna [5]; [11],** (harmful: (<10 mg L^−1 ≤ 100 mg L^−1))
same,EC50,D. magna [6]; ref 49,23.50 mg/L
same,Hazard Ranking,R. subcapitata [7]; [12],**** (Very toxic (≤1 mg L^−1))
same,Hazard Ranking,R. subcapitata [7]; [10],*** (toxic (<1 mg L^−1 ≤ 10 mg L^−1))
same,Hazard Ranking,A. fischeri [8]; [13],** (harmful: (<10 mg L^−1 ≤ 100 mg L^−1))
same,Hazard Ranking,A. fischeri [8]; GHS ranking of 30 min EC50 of ref 50,* (not harmful: (>100 mg L^−1))
same,Hazard Ranking,A. fischeri [8]; GHS ranking of 30 min EC50 of ref 51,* (not harmful: (>100 mg L^−1))
same,EC50,R. subcapitata [9]; 72 h,0.055 µg/mL
same,EC50,R. subcapitata [9]; 96 h,5.51 µg/mL
